The text below walks through data of ChEMBL document CHEMBL5053528, “Discovery of 2-(Ortho-Substituted Benzyl)-Indole Derivatives as Potent and Orally Bioavailable RORγ Agonists with Antitumor Activity” (J Med Chem, 2021).

Each structure is given as a SMILES string.

The target of data set [1] is T1, Nuclear receptor ROR-gamma (Homo sapiens, UniProt P51449).
T1 sequence (P51449 whole entry): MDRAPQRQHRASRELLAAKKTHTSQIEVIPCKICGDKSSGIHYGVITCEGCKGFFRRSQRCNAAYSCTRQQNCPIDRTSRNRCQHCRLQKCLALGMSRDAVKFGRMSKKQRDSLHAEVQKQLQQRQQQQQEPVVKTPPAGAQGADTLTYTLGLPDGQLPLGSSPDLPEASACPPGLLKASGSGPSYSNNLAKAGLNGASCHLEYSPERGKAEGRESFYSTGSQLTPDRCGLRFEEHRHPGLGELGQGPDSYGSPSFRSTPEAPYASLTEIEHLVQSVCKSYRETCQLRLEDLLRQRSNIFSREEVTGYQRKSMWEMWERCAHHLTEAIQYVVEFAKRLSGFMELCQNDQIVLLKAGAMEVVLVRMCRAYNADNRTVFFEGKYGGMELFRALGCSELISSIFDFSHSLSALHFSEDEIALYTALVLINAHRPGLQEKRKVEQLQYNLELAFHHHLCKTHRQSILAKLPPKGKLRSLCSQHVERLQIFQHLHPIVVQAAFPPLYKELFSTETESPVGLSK
Kind of data set: Agonist activity at human RORgamma in cytostim stimulated human PBMC cells assessed as increase in differentiation of TH17 cells by measuring IL-17 production preincubated with cytostim for 72 hrs by ELISA. In kind it is cell-based. On the technique in general: An ELISA detects its analyte on a solid surface through an enzyme-linked reagent.

The target in data set [2] is T1, Nuclear receptor ROR-gamma. Kind of data set: Agonist activity at N-terminal GST tagged human RORgamma LBD using fluorescein-D22 as coactivator incubated for 60 mins by Lanthascreen TR-FRET assay. In general terms: TR-FRET usually uses a lanthanide donor and a delayed reading to cut background.
Data set [3] can be described thus: Microsomal stability in human liver microsomes assessed as half life. In kind it is ADME, Microsome. On the technique in general: Liver microsomes are vesicles of endoplasmic reticulum, rich in cytochrome P450 enzymes.
Data set [4] can be described thus: Microsomal stability in rat liver microsomes assessed as half life. In kind it is ADME, Microsome.
The target of data set [5] is T1, Nuclear receptor ROR-gamma. Kind of data set: Antagonist activity at N-terminal GST tagged human RORgamma LBD using fluorescein-D22 as coactivator incubated for 60 mins by Lanthascreen TR-FRET assay.
Data set [6] concerns the target T1, Nuclear receptor ROR-gamma. Kind of data set: Antagonist activity at human RORgamma in cytostim stimulated human PBMC cells assessed as decrease in differentiation of TH17 cells by measuring IL-17 production preincubated with cytostim for 72 hrs by ELISA. In kind it is cell-based.
The target in data set [7] is T2, Nuclear receptor ROR-gamma (Homo sapiens) (UniProt P51449).
T2 sequence (whole entry): T1 sequence (P51449 whole entry)
The data set can be described thus: Inverse agonist activity at human RORgamma in cytostim stimulated human PBMC cells assessed as […] in IL-17 production by measuring maximal efficacy preincubated with cytostim for 72 hrs by ELISA relative to control. In kind it is cell-based. The conditions noted are these: filed as inverse agonist.

Turning to `CCS(=O)(=O)c1ccc(CNC(=O)c2ccc3c(c2)cc(Cc2ccc(Cl)cc2C(F)(F)F)n3C(C)C)cc1`, the EC50 turned out to be 8 nM in data set [1] and 11 nM in data set [2]. The figures for the half-life in data set [3] and in data set [4] were 182 min and 116 min, respectively.

For `CCS(=O)(=O)c1ccc(CNC(=O)c2ccc3c(c2)cc(Cc2ccccc2OC)n3C(C)C)cc1`, the half-life in data set [3] worked out at 13 min; in data set [4], 12 min.

Molecule `CCS(=O)(=O)c1ccc(CNC(=O)c2ccc3c(c2)cc(Cc2ccccc2)n3C(C)C)cc1` registered an EC50 in data set [5] of 683 nM.

As for `CCS(=O)(=O)c1ccc(CNC(=O)c2ccc3c(c2)cc(Cc2ccccc2C(F)(F)F)n3C(C)C)cc1`, the half-life amounted to 39 min in data set [3] and 43 min in data set [4].

`CCS(=O)(=O)c1ccc(CNC(=O)c2ccc3c(c2)cc(Cc2ccc(C(F)(F)F)cc2)n3C(C)C)cc1`: the EC50 in data set [5] was 150 nM; in data set [6], 109 nM. The Emax in data set [7] turned out to be 109%.

For `CCS(=O)(=O)c1ccc(CNC(=O)c2ccc3c(c2)cc(Cc2ccc(F)cc2C(F)(F)F)n3C(C)C)cc1`, the EC50 was found to be 17 nM in data set [1] and 14 nM in data set [2]. Moreover, the half-life was 72 min in data set [3] and 64 min in data set [4].

For the molecule `CCS(=O)(=O)c1ccc(CNC(=O)c2ccc3c(c2)cc(Cc2ccccc2C)n3C(C)C)cc1`, it took 44 nM to reach a half-maximal effect in data set [5] (EC50).

Consider `CCS(=O)(=O)c1ccc(CNC(=O)c2ccc3c(c2)cc(Cc2ccccc2Br)n3C(C)C)cc1`, for which the half-life in data set [3] is 15 min; in data set [4], 12 min.

As for `CCS(=O)(=O)c1ccc(CNC(=O)c2ccc3c(c2)cc(Cc2ccc(Cl)cc2C(F)(F)F)n3C2CC2)cc1`, the figures for the half-life in data set [3] and in data set [4] were 139 min and 102 min, respectively.

For the molecule `CCS(=O)(=O)c1ccc(CNC(=O)c2ccc3c(c2)cc(Cc2cccc(C(F)(F)F)c2)n3C(C)C)cc1`, the EC50 in data set [5] was 10 nM; in data set [6], 19 nM. The Emax in data set [7] was determined as 93%. Also, the half-life was 20 min in data set [3] and 19 min in data set [4].

One may read the EC50 as the concentration giving half of the maximal effect. In general, half-life refers to how long it takes for the measured level to halve. A word on the Emax: it is the greatest response seen or fitted, relative to the assay's reference.
